Experimental data published in the NIST ThermoML archive (doi:10.1016/j.jct.2005.03.016).

Assay: xn = mol fraction of the nth substance listed
Conditions: Liquid, Vibrating tube method

CC1CCCCC1 [methylcyclohexane] + CCO
mass density [kg/m3]
Conditions	100 kPa	5000 kPa	10000 kPa	15000 kPa	20000 kPa	25000 kPa	30000 kPa	35000 kPa	40000 kPa	45000 kPa
283.15 K, x2 = 0	777.6	781.4	785.2	788.7	792.1	795.3	798.5	801.5	804.4	807.3
283.15 K, x2 = 0.052	777.6	781.4	785.1	788.7	792.1	795.4	798.5	801.6	804.5	807.4
283.15 K, x2 = 0.125	777.7	781.6	785.3	788.9	792.4	795.6	798.8	801.9	804.8	807.7
283.15 K, x2 = 0.25	778.5	782.4	786.2	789.8	793.2	796.6	799.7	802.8	805.8	808.7
283.15 K, x2 = 0.375	779.8	783.6	787.4	791.1	794.6	797.9	801.1	804.2	807.2	810.1
283.15 K, x2 = 0.5	781.4	785.3	789.1	792.8	796.3	799.6	802.8	806	809	811.9
283.15 K, x2 = 0.625	783.5	787.4	791.3	794.9	798.5	801.8	805.1	808.2	811.3	814.2
283.15 K, x2 = 0.75	786.4	790.4	794.3	797.9	801.5	804.9	808.1	811.3	814.3	817.2
283.15 K, x2 = 0.875	790.9	794.8	798.7	802.4	805.9	809.3	812.6	815.8	818.8	821.8
293.15 K, x2 = 0	769	773	777	780.7	784.3	787.8	791.1	794.2	797.3	800.2
293.15 K, x2 = 0.052	768.8	772.8	776.8	780.6	784.2	787.6	790.9	794.1	797.2	800.2
293.15 K, x2 = 0.125	768.9	772.9	776.9	780.7	784.4	787.8	791.2	794.4	797.5	800.5
293.15 K, x2 = 0.25	769.6	773.7	777.8	781.6	785.2	788.7	792.1	795.3	798.4	801.5
293.15 K, x2 = 0.375	770.8	774.9	779	782.8	786.5	790	793.4	796.7	799.8	802.8
293.15 K, x2 = 0.5	772.5	776.6	780.7	784.5	788.2	791.8	795.2	798.4	801.6	804.6
293.15 K, x2 = 0.625	774.6	778.8	782.9	786.8	790.5	794	797.4	800.7	803.9	806.9
293.15 K, x2 = 0.75	777.7	781.8	785.9	789.9	793.6	797.1	800.5	803.8	807	810
293.15 K, x2 = 0.875	782.2	786.4	790.5	794.4	798.1	801.7	805.1	808.4	811.6	814.6
303.15 K, x2 = 0	760.4	764.7	768.9	772.8	776.6	780.2	783.7	787	790.2	793.3
303.15 K, x2 = 0.052	760.1	764.4	768.6	772.6	776.5	780.1	783.6	786.9	790.1	793.2
303.15 K, x2 = 0.125	760.1	764.4	768.6	772.7	776.5	780.2	783.6	787	790.3	793.4
303.15 K, x2 = 0.25	760.7	765.1	769.4	773.4	777.3	781	784.5	787.9	791.2	794.3
303.15 K, x2 = 0.375	761.9	766.3	770.6	774.7	778.6	782.3	785.8	789.2	792.5	795.7
303.15 K, x2 = 0.5	763.6	768	772.3	776.4	780.3	784	787.6	791	794.3	797.4
303.15 K, x2 = 0.625	765.8	770.2	774.5	778.6	782.5	786.3	789.9	793.3	796.6	799.8
303.15 K, x2 = 0.75	768.9	773.3	777.7	781.8	785.7	789.4	793.1	796.5	799.8	803
303.15 K, x2 = 0.875	773.5	777.9	782.3	786.4	790.3	794	797.6	801.1	804.4	807.6
313.15 K, x2 = 0	751.7	756.2	760.7	764.8	768.8	772.7	776.3	779.8	783.1	786.4
313.15 K, x2 = 0.052	751.1	755.7	760.1	764.4	768.4	772.2	775.9	779.4	782.8	786.1
313.15 K, x2 = 0.125	751	755.7	760.2	764.5	768.5	772.4	776.1	779.6	783	786.3
313.15 K, x2 = 0.25	751.6	756.3	760.9	765.2	769.3	773.2	776.9	780.5	783.9	787.2
313.15 K, x2 = 0.375	752.7	757.4	762	766.4	770.5	774.4	778.1	781.7	785.2	788.5
313.15 K, x2 = 0.5	754.4	759.1	763.7	768.1	772.2	776.1	779.9	783.5	786.9	790.2
313.15 K, x2 = 0.625	756.7	761.4	766	770.4	774.5	778.4	782.2	785.8	789.3	792.6
313.15 K, x2 = 0.75	759.9	764.6	769.2	773.6	777.7	781.6	785.4	789	792.5	795.8
313.15 K, x2 = 0.875	764.7	769.3	773.9	778.3	782.4	786.3	790.1	793.7	797.1	800.4
323.15 K, x2 = 0	742.9	747.7	752.5	756.9	761.1	765.1	769	772.6	776.1	779.5
323.15 K, x2 = 0.052	742	746.9	751.7	756.3	760.5	764.5	768.4	772.1	775.6	779.1
323.15 K, x2 = 0.125	741.9	746.8	751.7	756.2	760.5	764.6	768.5	772.2	775.7	779.2
323.15 K, x2 = 0.25	742.4	747.4	752.3	756.8	761.2	765.3	769.2	772.9	776.5	780
323.15 K, x2 = 0.375	743.4	748.5	753.4	758	762.4	766.5	770.4	774.2	777.8	781.2
323.15 K, x2 = 0.5	745	750.1	755	759.6	764	768.2	772.1	775.9	779.5	783
323.15 K, x2 = 0.625	747.4	752.4	757.4	762	766.4	770.5	774.5	778.2	781.9	785.3
323.15 K, x2 = 0.75	750.7	755.7	760.6	765.2	769.6	773.7	777.7	781.5	785.1	788.6
323.15 K, x2 = 0.875	755.6	760.6	765.5	770.1	774.4	778.5	782.4	786.2	789.8	793.3
333.15 K, x2 = 0	733.9	739	744.1	748.8	753.3	757.5	761.5	765.4	769	772.5
333.15 K, x2 = 0.052	732.8	738.1	743.2	748	752.5	756.8	760.9	764.7	768.5	772
333.15 K, x2 = 0.125	732.4	737.8	742.9	747.8	752.3	756.6	760.7	764.6	768.4	771.9
333.15 K, x2 = 0.25	732.7	738.1	743.3	748.2	752.8	757.1	761.3	765.2	769	772.6
333.15 K, x2 = 0.375	733.7	739.1	744.4	749.3	753.9	758.3	762.4	766.4	770.2	773.8
333.15 K, x2 = 0.5	735.3	740.7	746	750.9	755.6	759.9	764.1	768.1	771.9	775.5
333.15 K, x2 = 0.625	737.6	743	748.3	753.3	757.9	762.3	766.4	770.4	774.2	777.9
333.15 K, x2 = 0.75	741	746.4	751.6	756.6	761.2	765.5	769.7	773.7	777.5	781.1
333.15 K, x2 = 0.875	746	751.4	756.6	761.5	766	770.4	774.5	778.4	782.2	785.9
343.15 K, x2 = 0	724.8	730.4	735.8	740.8	745.6	750	754.2	758.2	762.1	765.7
343.15 K, x2 = 0.052	723.4	729.1	734.6	739.7	744.5	749	753.3	757.4	761.3	765
343.15 K, x2 = 0.125	722.8	728.6	734.1	739.3	744.2	748.7	753	757.1	761	764.8
343.15 K, x2 = 0.25	722.9	728.7	734.3	739.6	744.5	749.1	753.5	757.6	761.5	765.3
343.15 K, x2 = 0.375	723.8	729.6	735.3	740.5	745.5	750.1	754.5	758.6	762.6	766.4
343.15 K, x2 = 0.5	725.3	731.2	736.9	742.1	747.1	751.7	756.1	760.3	764.3	768.1
343.15 K, x2 = 0.625	727.6	733.5	739.2	744.4	749.4	754	758.4	762.6	766.6	770.4
343.15 K, x2 = 0.75	731.1	736.9	742.5	747.8	752.7	757.3	761.7	765.9	769.8	773.6
343.15 K, x2 = 0.875	736.3	742.1	747.6	752.8	757.7	762.3	766.6	770.8	774.7	778.4
353.15 K, x2 = 0	715.7	721.7	727.4	732.8	737.8	742.5	747	751.2	755.2	759
353.15 K, x2 = 0.052	–	720.2	726	731.5	736.6	741.3	745.8	750.1	754.2	758
353.15 K, x2 = 0.125	–	719.3	725.3	730.8	736	740.8	745.3	749.6	753.7	757.7
353.15 K, x2 = 0.25	–	719.2	725.2	730.8	736	740.9	745.5	749.9	754	758
353.15 K, x2 = 0.375	–	719.9	726	731.7	736.9	741.8	746.4	750.8	755	759
353.15 K, x2 = 0.5	–	721.4	727.5	733.1	738.4	743.4	748	752.4	756.6	760.6
353.15 K, x2 = 0.625	–	723.7	729.8	735.4	740.7	745.6	750.3	754.6	758.8	762.8
353.15 K, x2 = 0.75	–	727.1	733.2	738.8	744	748.9	753.6	757.9	762.1	766.1
353.15 K, x2 = 0.875	–	732.5	738.4	743.9	749.1	753.9	758.5	762.9	767	771
